Earlier results as cited in US5547866A (priority 1994, dated 1996).

System: breast, lung and other cancers
Conditions: background

## CC(=O)O[C@H]1C(=O)[C@@]2(C)[C@H]([C@H](OC(=O)c3ccccc3)[C@]3(O)C[C@H](OC(=O)[C@H](O)[C@@H](NC(=O)c4ccccc4)c4ccccc4)C(C)=C1C3(C)C)[C@]1(OC(C)=O)CO[C@@H]1C[C@@H]2O [taxol]
  activity against breast, lung and other cancers: shown activity against breast, lung and other cancers
